Laboratory results published in patent US12491225B2, “Antiviral compositions and methods” (RALCO NUTRITION, INC., priority 2014, dated 2025).

Assays:
Conditions in all cases: trolox equivalents
[1] = Total ORAC
Text: (§1) Antiviral EO compositions as described herein can provide antioxidant properties to a subject or host system. Antioxidants can enhance neutrophil function, improve fertility, reduce heat stress related pregnancy losses, reduce frequency of retained placentas, and reduce metritis in dairy cows. Oxygen radical absorbance capacity (ORAC) is the ability of a compound or composition to act as a proton donor and reducing agent for oxygen radicals. In particular, ORAC measures the ability of a compound or composition to act as a reducing agent for peroxyl radicals, hydroxyl radicals, peroxynitrite, superoxide anion, and singlet oxygen, the five most damaging oxygen radicals.
(§2) ORAC capabilities of EO compositions were tested Brunswick Labs, Massachusetts. Table 20 illustrates the antioxidant ability of several embodiments provided herein, as compared to an industry standard antioxidant, Vitamin E. Results are expressed as trolox equivalents (TE/100 g) for each composition: […]

[2] = ORAC, singlet oxygen
Text: as §1, §2

[3] = ORAC, peroxyl radical
Text: as §1, §2

[4] = ORAC, superoxide anion
Text: as §1, §2

[5] = ORAC, peroxynitrite
Text: as §1, §2

[6] = ORAC, hydroxyl radical
Text: as §1, §2

Substance | Total ORAC [1] [TE/100 g] | ORAC, Singlet oxygen [2] [TE/100 g] | ORAC, Peroxyl radical [3] [TE/100 g] | ORAC, Superoxide anion [4] [TE/100 g] | ORAC, Peroxynitrite [5] [TE/100 g] | ORAC, Hydroxyl radical [6] [TE/100 g]
Arabinogalactan | 96400 | 11600 | 20600 | 16600 | 1200 | 46400
Vitamin E [Natural Vitamin E] | 39200 | 37100 | 2100 | 0 | 0 | 0
